Test results as given in patent publication US20080280837A1, “Biologically Active Compounds with Anti-Angiogenic Properties” (priority 2004, published 2008).

target: T1, Human SST5 somatostatin receptor (SSTR5) (Homo sapiens, UniProt P35346); test: Filter plate assay for SST5 receptor, displacement of [125I]SST-14; type: binding; settings: 0.5 uM
T1 construct: expressed in transfected cells; host or cells: HEK-293 EBNA
Protocol: Receptor membrane preparations containing the desired cloned receptor (for example cloned human somatostatin receptor subtype 5, SSTR5) and radio-labeled ligand (for example 3-[^125I]iodotyrosyl^11 Somatostatin-14)) were diluted at the concentration required for testing and according to the specific parameters associated with the selected receptor-ligand combination, including receptor Bmax, ligand Kd and any other parameters necessary to optimize the experimental conditions. When tested for competition activity to the reference ligand, “compound 1” was mixed with membrane suspension and the radiolabeled reference ligand (with or without an excess of cold ligand to the receptor for determination of non-specific binding) and incubated at the temperature required by internal standard operating procedures. Following incubation, the binding reaction was stopped by the addition of ice-cold washing buffer and filtered on appropriate filters, which are then counted. Data analysis and curve-fitting was performed with XLfit (IDBS).
10 mM solutions of test compounds in 100% DMSO were prepared. ˜160 μl was used for each dilution (20 μl/well in triplicate).
A 1.25 mM assay stock was prepared by making a 1:8 dilution of the 10 mM solution. (To 30 μL of the 10 mM solution was added 210 μL milli-Q H2O. A 1:5 dilution series in milli-Q H2O was then prepared.
Assays were performed in triplicate at each concentration within the 1:5 dilution series: 250 μM, 50 μM, 10 μM, […], 0.4 μM, 0.08 μM, 0.016 μM, 0.0032 μM, etc. (for SST4 assay) and 125 μM, 10 μM, 2 μM, 1 μM, 0.5 μM, etc (for SST5 assay).
Human SST5 somatostatin receptor was transfected into HEK-293 EBNA cells. Membranes were suspended in assay buffer (50 mM Tris-HCl, 1 mM EGTA, 5 mM MgCl2, 10% sucrose, pH 7.5).
After thawing the frozen receptor preparation rapidly, receptors were diluted with binding buffer, homogenized, and kept on ice. • 1. Use Multiscreen glass fiber filter plates (Millipore, Cat No MAFCNOB10) precoated with o.5% PEI for ˜2 hr at 4° C. Before use add 200 μl/well assay buffer and filter using Multiscreen Separation System. • 2. Incubate 5.5 μg of membranes (40 μl of a 1:40 dilution), buffer and [^125I]SST-14 (4 nM, ˜80 000 cpm, 2000 Ci/mmol) in a total volume of 200 μl for 60 min at 25° C. […] Prepare serial dilutions (1:5) of compounds, as described above and instead of adding SST-14 in well, add 20 μl of compounds (Table 1). • 3. Filter using Multiscreen Separation System with 5×0.2 ml ice-cold Assay buffer. • 4. Remove the plastic underdrain and dry plate in oven for 1 hr at 40° C. • 5. Seal tape to the bottom of the plate. • 6. Add 50 μl/well scintillant (Supermix, Wallac, Cat No 1200-439). • 7. Seal and count in the BJET, program 2.
In primary screening experiments compounds were tested in duplicate for a particular concentration.

T1 sequence (P35346 whole entry): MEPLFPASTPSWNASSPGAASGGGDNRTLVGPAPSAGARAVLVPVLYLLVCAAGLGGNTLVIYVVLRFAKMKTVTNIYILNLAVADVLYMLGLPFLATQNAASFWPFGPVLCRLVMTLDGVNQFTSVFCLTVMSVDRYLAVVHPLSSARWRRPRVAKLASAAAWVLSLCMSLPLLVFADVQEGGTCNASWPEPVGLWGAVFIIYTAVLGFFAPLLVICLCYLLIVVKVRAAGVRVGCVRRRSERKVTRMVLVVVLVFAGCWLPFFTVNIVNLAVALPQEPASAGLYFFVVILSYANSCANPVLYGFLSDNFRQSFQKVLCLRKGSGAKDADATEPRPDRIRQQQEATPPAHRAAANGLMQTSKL

| Structure (SMILES) | SSTR5 Inhib 0.5 uM % (inhibition of binding of SST-14 to SSTR5) [%] |
| --- | --- |
| COC1C(O)C(COCc2ccc3ccccc3c2)OC(OCc2ccc(Cl)cc2)C1NC(=O)C1CCCN1 (stereo not drawn) [Compound 51] | 76 |
| COC[C@H]1OC(OCc2ccc3ccccc3c2)[C@H](NC(=O)CCNC(=N)N)[C@@H](OCc2ccc(-c3ccccc3)cc2)[C@@H]1O (stereo partly drawn) [Compound 52] | 69 |
| COC[C@H]1OC(OCc2ccccc2)[C@H](NC(=O)CCNC(=N)N)[C@H](OCc2ccc3ccccc3c2)[C@@H]1O (stereo partly drawn) [Compound 53] | 58 |
| COC[C@H]1OC(OCc2ccccc2)[C@H](NC(=O)CCN)[C@H](OCc2ccc(-c3ccccc3)cc2)[C@@H]1O (stereo partly drawn) [Compound 54] | 60 |
| COC[C@H]1OC(OCc2ccc(-c3ccccc3)cc2)[C@H](NC(=O)CCCNC(=N)N)[C@@H](OCc2ccc(-c3ccccc3)cc2)[C@@H]1O (stereo partly drawn) [Compound 55] | 71 |
| COC[C@H]1OC(OCc2ccc(Cl)cc2)[C@H](NC(=O)CCCNC(=N)N)[C@@H](OCc2ccc(Cl)cc2)[C@@H]1O (stereo partly drawn) [Compound 56] | 57 |
| COC[C@H]1OC(OCc2ccc3ccccc3c2)[C@H](NC(=O)CCNC(=N)N)[C@H](OCc2ccc3ccccc3c2)[C@@H]1O (stereo partly drawn) [Compound 57] | 64 |
| COC[C@H]1OC(OCc2ccc(-c3ccccc3)cc2)[C@H](NC(=O)CCCNC(=N)N)[C@@H](OCc2ccc(-c3ccccc3)cc2)[C@@H]1O (stereo partly drawn) [Compound 58] | 65 |
| COC[C@H]1OC(OCc2ccccc2)[C@H](NC(=O)CCCN)[C@H](OCc2ccc(Cl)cc2)[C@@H]1O (stereo partly drawn) [Compound 59] | 66 |
| COC[C@H]1OC(OCc2ccc3ccccc3c2)[C@H](NC(=O)CCCNC(=N)N)[C@H](OCc2ccc3ccccc3c2)[C@@H]1O (stereo partly drawn) [Compound 60] | 57 |
| COC[C@H]1OC(OCc2ccc3ccccc3c2)[C@H](NC(=O)CCCN)[C@@H](OCc2ccc(Cl)cc2)[C@@H]1O (stereo partly drawn) [Compound 61] | 61 |
| COC[C@H]1OC(OCCc2ccccc2)[C@H](NC(=O)CCCNC(=N)N)[C@H](OCc2ccc(Cl)cc2)[C@@H]1O (stereo partly drawn) [Compound 62] | 61 |
| COC[C@H]1OC(OCc2ccc(-c3ccccc3)cc2)[C@H](NC(=O)CCCN)[C@@H](OCc2ccc(Cl)cc2)[C@@H]1O (stereo partly drawn) [Compound 63] | 50 |
| COC[C@H]1OC(OCc2ccc3ccccc3c2)[C@H](NC(=O)CCCNC(=N)N)[C@H](OCc2ccccc2)[C@@H]1O (stereo partly drawn) [Compound 64] | 57 |
| COC[C@H]1OC(OCCc2ccccc2)[C@H](NC(=O)CCCN)[C@@H](OCc2ccc(-c3ccccc3)cc2)[C@@H]1O (stereo partly drawn) [Compound 65] | 61 |
| CSC1O[C@H](COCc2ccc(-c3ccccc3)cc2)[C@@H](O)[C@@H](OCc2ccc3ccccc3c2)[C@H]1NC(=O)CCN (stereo partly drawn) [Compound 66] | 61 |
| CO[C@H]1[C@H](O)[C@@H](COCc2ccc(-c3ccccc3)cc2)OC(OCc2ccc(Cl)cc2)[C@@H]1NC(=O)CCCNC(=N)N (stereo partly drawn) [Compound 67] | 48 |
| COC[C@H]1OC(OCc2ccc3ccccc3c2)[C@H](NC(=O)CCCN)[C@@H](OCc2ccccc2)[C@@H]1O (stereo partly drawn) [Compound 68] | 46 |
| CO[C@@H]1[C@H](O)[C@@H](COCc2ccc3ccccc3c2)OC(OCc2ccc(Cl)cc2)[C@@H]1NC(=O)C1CCCN(C(=N)N)C1 (stereo partly drawn) [Compound 69] | 67 |
| CO[C@H]1[C@H](O)[C@@H](COCc2ccc(-c3ccccc3)cc2)OC(OCc2ccc(-c3ccccc3)cc2)[C@@H]1NC(=O)CNC(=N)N (stereo partly drawn) [Compound 70] | 18 |
| COC[C@H]1OC(OCc2ccc(Cl)cc2)[C@H](NC(=O)CCNC(=N)N)[C@H](OCc2ccc(Cl)cc2)[C@@H]1O (stereo partly drawn) [Compound 71] | 49 |
| CSC1O[C@H](COCc2ccccc2)[C@@H](O)[C@@H](OCc2ccc3ccccc3c2)[C@H]1NC(=O)CNC(=N)N (stereo partly drawn) [Compound 72] | 51 |
| COC[C@H]1OC(OCCc2ccccc2)[C@H](NC(=O)CCCN)[C@@H](OCc2ccc3ccccc3c2)[C@@H]1O (stereo partly drawn) [Compound 73] | 56 |
| COC[C@H]1OC(OCc2ccc(-c3ccccc3)cc2)[C@H](NC(=O)CCCN)[C@@H](OCc2ccc(Cl)cc2)[C@@H]1O (stereo partly drawn) [Compound 74] | 64 |
| COC[C@H]1OC(OCc2ccc3ccccc3c2)[C@H](NC(=O)CCCNC(=N)N)[C@@H](OCc2ccc3ccccc3c2)[C@@H]1O (stereo partly drawn) [Compound 75] | 61 |
| COC[C@H]1OC(OCc2ccccc2)[C@H](NC(=O)CCCN)[C@H](OCc2ccc3ccccc3c2)[C@@H]1O (stereo partly drawn) [Compound 76] | 51 |
| COC[C@H]1OC(OCc2ccc(-c3ccccc3)cc2)[C@H](NC(=O)CCCNC(=N)N)[C@@H](OCc2ccc(-c3ccccc3)cc2)[C@@H]1O (stereo partly drawn) [Compound 77] | 50 |
| COC1C(O)C(COCc2ccc(Cl)cc2)OC(OCc2ccc(-c3ccccc3)cc2)C1NC(=O)CCNC(=N)N (stereo not drawn) [Compound 78] | 43 |
| COC1C(O)C(COCc2ccc3ccccc3c2)OC(OCc2ccc(Cl)cc2)C1NC(=O)C1CCN(C(=N)N)CC1 (stereo not drawn) [Compound 79] | 55 |
| COC[C@H]1OC(OCc2ccc(-c3ccccc3)cc2)[C@H](NC(=O)CCCN)[C@@H](OCc2ccc(-c3ccccc3)cc2)[C@@H]1O (stereo partly drawn) [Compound 80] | 44 |

same assay, conditions: 10 uM

| Structure (SMILES) | SSTR5 Inhib 10 uM % (inhibition of binding of SST-14 to SSTR5) [%] |
| --- | --- |
| COC1C(O)C(COCc2ccc3ccccc3c2)OC(OCc2ccc(Cl)cc2)C1NC(=O)C1CCCN1 (stereo not drawn) [Compound 51] | 92 |
| COC[C@H]1OC(OCc2ccc3ccccc3c2)[C@H](NC(=O)CCNC(=N)N)[C@@H](OCc2ccc(-c3ccccc3)cc2)[C@@H]1O (stereo partly drawn) [Compound 52] | 92 |
| COC[C@H]1OC(OCc2ccccc2)[C@H](NC(=O)CCNC(=N)N)[C@H](OCc2ccc3ccccc3c2)[C@@H]1O (stereo partly drawn) [Compound 53] | 91 |
| COC[C@H]1OC(OCc2ccccc2)[C@H](NC(=O)CCN)[C@H](OCc2ccc(-c3ccccc3)cc2)[C@@H]1O (stereo partly drawn) [Compound 54] | 91 |
| COC[C@H]1OC(OCc2ccc(-c3ccccc3)cc2)[C@H](NC(=O)CCCNC(=N)N)[C@@H](OCc2ccc(-c3ccccc3)cc2)[C@@H]1O (stereo partly drawn) [Compound 55] | 91 |
| COC[C@H]1OC(OCc2ccc(Cl)cc2)[C@H](NC(=O)CCCNC(=N)N)[C@@H](OCc2ccc(Cl)cc2)[C@@H]1O (stereo partly drawn) [Compound 56] | 91 |
| COC[C@H]1OC(OCc2ccc3ccccc3c2)[C@H](NC(=O)CCNC(=N)N)[C@H](OCc2ccc3ccccc3c2)[C@@H]1O (stereo partly drawn) [Compound 57] | 91 |
| COC[C@H]1OC(OCc2ccc(-c3ccccc3)cc2)[C@H](NC(=O)CCCNC(=N)N)[C@@H](OCc2ccc(-c3ccccc3)cc2)[C@@H]1O (stereo partly drawn) [Compound 58] | 91 |
| COC[C@H]1OC(OCc2ccccc2)[C@H](NC(=O)CCCN)[C@H](OCc2ccc(Cl)cc2)[C@@H]1O (stereo partly drawn) [Compound 59] | 90 |
| COC[C@H]1OC(OCc2ccc3ccccc3c2)[C@H](NC(=O)CCCNC(=N)N)[C@H](OCc2ccc3ccccc3c2)[C@@H]1O (stereo partly drawn) [Compound 60] | 90 |
| COC[C@H]1OC(OCc2ccc3ccccc3c2)[C@H](NC(=O)CCCN)[C@@H](OCc2ccc(Cl)cc2)[C@@H]1O (stereo partly drawn) [Compound 61] | 90 |
| COC[C@H]1OC(OCCc2ccccc2)[C@H](NC(=O)CCCNC(=N)N)[C@H](OCc2ccc(Cl)cc2)[C@@H]1O (stereo partly drawn) [Compound 62] | 90 |
| COC[C@H]1OC(OCc2ccc(-c3ccccc3)cc2)[C@H](NC(=O)CCCN)[C@@H](OCc2ccc(Cl)cc2)[C@@H]1O (stereo partly drawn) [Compound 63] | 90 |
| COC[C@H]1OC(OCc2ccc3ccccc3c2)[C@H](NC(=O)CCCNC(=N)N)[C@H](OCc2ccccc2)[C@@H]1O (stereo partly drawn) [Compound 64] | 90 |
| COC[C@H]1OC(OCCc2ccccc2)[C@H](NC(=O)CCCN)[C@@H](OCc2ccc(-c3ccccc3)cc2)[C@@H]1O (stereo partly drawn) [Compound 65] | 90 |
| CSC1O[C@H](COCc2ccc(-c3ccccc3)cc2)[C@@H](O)[C@@H](OCc2ccc3ccccc3c2)[C@H]1NC(=O)CCN (stereo partly drawn) [Compound 66] | 89 |
| CO[C@H]1[C@H](O)[C@@H](COCc2ccc(-c3ccccc3)cc2)OC(OCc2ccc(Cl)cc2)[C@@H]1NC(=O)CCCNC(=N)N (stereo partly drawn) [Compound 67] | 89 |
| COC[C@H]1OC(OCc2ccc3ccccc3c2)[C@H](NC(=O)CCCN)[C@@H](OCc2ccccc2)[C@@H]1O (stereo partly drawn) [Compound 68] | 89 |
| CO[C@@H]1[C@H](O)[C@@H](COCc2ccc3ccccc3c2)OC(OCc2ccc(Cl)cc2)[C@@H]1NC(=O)C1CCCN(C(=N)N)C1 (stereo partly drawn) [Compound 69] | 89 |
| CO[C@H]1[C@H](O)[C@@H](COCc2ccc(-c3ccccc3)cc2)OC(OCc2ccc(-c3ccccc3)cc2)[C@@H]1NC(=O)CNC(=N)N (stereo partly drawn) [Compound 70] | 89 |
| COC[C@H]1OC(OCc2ccc(Cl)cc2)[C@H](NC(=O)CCNC(=N)N)[C@H](OCc2ccc(Cl)cc2)[C@@H]1O (stereo partly drawn) [Compound 71] | 89 |
| CSC1O[C@H](COCc2ccccc2)[C@@H](O)[C@@H](OCc2ccc3ccccc3c2)[C@H]1NC(=O)CNC(=N)N (stereo partly drawn) [Compound 72] | 89 |
| COC[C@H]1OC(OCCc2ccccc2)[C@H](NC(=O)CCCN)[C@@H](OCc2ccc3ccccc3c2)[C@@H]1O (stereo partly drawn) [Compound 73] | 89 |
| COC[C@H]1OC(OCc2ccc(-c3ccccc3)cc2)[C@H](NC(=O)CCCN)[C@@H](OCc2ccc(Cl)cc2)[C@@H]1O (stereo partly drawn) [Compound 74] | 89 |
| COC[C@H]1OC(OCc2ccc3ccccc3c2)[C@H](NC(=O)CCCNC(=N)N)[C@@H](OCc2ccc3ccccc3c2)[C@@H]1O (stereo partly drawn) [Compound 75] | 89 |
| COC[C@H]1OC(OCc2ccccc2)[C@H](NC(=O)CCCN)[C@H](OCc2ccc3ccccc3c2)[C@@H]1O (stereo partly drawn) [Compound 76] | 88 |
| COC[C@H]1OC(OCc2ccc(-c3ccccc3)cc2)[C@H](NC(=O)CCCNC(=N)N)[C@@H](OCc2ccc(-c3ccccc3)cc2)[C@@H]1O (stereo partly drawn) [Compound 77] | 88 |
| COC1C(O)C(COCc2ccc(Cl)cc2)OC(OCc2ccc(-c3ccccc3)cc2)C1NC(=O)CCNC(=N)N (stereo not drawn) [Compound 78] | 88 |
| COC1C(O)C(COCc2ccc3ccccc3c2)OC(OCc2ccc(Cl)cc2)C1NC(=O)C1CCN(C(=N)N)CC1 (stereo not drawn) [Compound 79] | 88 |
| COC[C@H]1OC(OCc2ccc(-c3ccccc3)cc2)[C@H](NC(=O)CCCN)[C@@H](OCc2ccc(-c3ccccc3)cc2)[C@@H]1O (stereo partly drawn) [Compound 80] | 88 |
